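Five compound concentrations were applied to cells in 96-well plates for 48 hours; endpoints were derived by simple linear interpolation of the resulting dose-response curve. TGI is the concentration that stops growth completely.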
How the values were obtained:
Test in all cases: DTP human tumour cell line panel, 48 h
[1] = tested on: SW-620 colon
[2] = tested on: PC-3 prostate
[3] = tested on: MDA-MB-435
[4] = tested on: SR leukemia
[5] = tested on: COLO 205 colon
[6] = tested on: T-47D breast
[7] = tested on: SN12C renal
[8] = tested on: A498 renal
[9] = tested on: MALME-3M melanoma
[10] = tested on: SNB-19 CNS
[11] = tested on: SK-MEL-5 melanoma
[12] = tested on: IGROV1 ovarian
[13] = tested on: SK-OV-3 ovarian
[14] = tested on: DU-145 prostate
[15] = tested on: HCT-15 colon
[16] = tested on: UACC-62 melanoma
[17] = tested on: SK-MEL-28 melanoma
[18] = tested on: BT-549 breast
[19] = tested on: 786-0 renal
[20] = tested on: MDA-MB-231 breast
[21] = tested on: HL-60(TB) leukemia
[22] = tested on: SF-268 CNS
[23] = tested on: CAKI-1 renal
[24] = tested on: SF-295 CNS
[25] = tested on: OVCAR-8 ovarian
[26] = tested on: RXF 393 renal
[27] = tested on: KM12 colon
[28] = tested on: HT29 colon
[29] = tested on: ACHN renal
[30] = tested on: A549 NSCLC
[31] = tested on: HCC-2998 colon
[32] = tested on: NCI-H460 lung
[33] = tested on: LOX IMVI melanoma
[34] = tested on: UACC-257 melanoma
[35] = tested on: HCT-116 colon
[36] = tested on: SK-MEL-2 melanoma
[37] = tested on: RPMI-8226 leukemia
[38] = tested on: MDA-N
[39] = tested on: K-562 leukemia
[40] = tested on: NCI/ADR-RES ovarian
[41] = tested on: U251 CNS
[42] = tested on: M14 melanoma
[43] = tested on: SNB-75 CNS
[44] = tested on: UO-31 renal
[45] = tested on: NCI-H226 lung
[46] = tested on: MCF7 breast
[47] = tested on: NCI-H522 lung
[48] = tested on: OVCAR-5 ovarian
[49] = tested on: HOP-92 NSCLC
[50] = tested on: NCI-H23 lung
[51] = tested on: CCRF-CEM leukemia
[52] = tested on: OVCAR-3 ovarian
[53] = tested on: EKVX NSCLC
[54] = tested on: HS 578T breast
[55] = tested on: MOLT-4 leukemia
[56] = tested on: SF-539 CNS
[57] = tested on: OVCAR-4 ovarian
[58] = tested on: TK-10 renal
[59] = tested on: HOP-62 NSCLC

With `CCOC(=O)C1(C(C)=O)OC(=O)c2cnccc21` (stereo not drawn) the TGI [1] was > 100 µM, the TGI [2] was > 100 µM and the TGI [3] was > 100 µM. For the same compound, the TGI [4] was > 100 µM, the TGI [5] was > 100 µM and the TGI [6] was > 100 µM. The TGI [7] was > 100 µM, the TGI [8] was > 100 µM and the TGI [9] was > 100 µM. For the same compound, the TGI [10] was > 100 µM, the TGI [11] was > 100 µM and the TGI [12] was > 100 µM. For the same compound, the TGI [13] was > 100 µM, the TGI [14] was > 100 µM and the TGI [15] was > 100 µM. For the same compound, the TGI [16] was > 100 µM, the TGI [17] was > 100 µM and the TGI [18] was > 100 µM. For the same compound, the TGI [19] was > 100 µM, the TGI [20] was > 100 µM and the TGI [21] was > 100 µM. For the same compound, the TGI [22] was > 100 µM, the TGI [23] was > 100 µM and the TGI [24] was > 100 µM. For the same compound, the TGI [25] was > 100 µM, the TGI [26] was > 100 µM and the TGI [27] was > 100 µM. The TGI [28] was > 100 µM, the TGI [29] was > 100 µM and the TGI [30] was > 100 µM. The TGI [31] was > 100 µM, the TGI [32] was > 100 µM and the TGI [33] was > 100 µM. For the same compound, the TGI [34] was > 100 µM, the TGI [35] was > 100 µM and the TGI [36] was > 100 µM. For the same compound, the TGI [37] was > 100 µM, the TGI [38] was > 100 µM and the TGI [39] was > 100 µM. For the same compound, the TGI [40] was > 100 µM, the TGI [41] was > 100 µM and the TGI [42] was > 100 µM. The TGI [43] was > 100 µM, the TGI [44] was > 100 µM and the TGI [45] was > 100 µM. The TGI [46] was > 100 µM, the TGI [47] was > 100 µM and the TGI [48] was > 100 µM. The TGI [49] was > 100 µM, the TGI [50] was > 100 µM and the TGI [51] was > 100 µM. For the same compound, the TGI [52] was > 100 µM, the TGI [53] was > 100 µM and the TGI [54] was > 100 µM. The TGI [55] was > 100 µM and the TGI [56] was > 100 µM.

For `O=[N+]([O-])c1ccc(/C(=C\c2ccccc2)Cn2ccnc2)cc1`, the TGI [1] was > 100 µM, the TGI [2] was 95.7 µM and the TGI [57] was > 100 µM. The TGI [3] was > 100 µM, the TGI [4] was > 100 µM and the TGI [5] was 30 µM. The TGI [6] was > 100 µM, the TGI [7] was > 100 µM and the TGI [8] was 72 µM. For the same compound, the TGI [9] was > 100 µM, the TGI [10] was > 100 µM and the TGI [11] was 94.4 µM. The TGI [12] was > 100 µM, the TGI [13] was > 100 µM and the TGI [14] was > 100 µM. The TGI [15] was > 100 µM, the TGI [16] was > 100 µM and the TGI [17] was > 100 µM. For the same compound, the TGI [18] was 87.8 µM, the TGI [19] was > 100 µM and the TGI [20] was 87.8 µM. The TGI [21] was 46.4 µM, the TGI [58] was > 100 µM and the TGI [23] was 45.6 µM. The TGI [24] was > 100 µM, the TGI [25] was > 100 µM and the TGI [26] was > 100 µM. The TGI [27] was > 100 µM, the TGI [28] was 67.1 µM and the TGI [29] was > 100 µM. The TGI [30] was > 100 µM, the TGI [31] was > 100 µM and the TGI [32] was > 100 µM. The TGI [33] was 54.1 µM, the TGI [34] was > 100 µM and the TGI [35] was > 100 µM. For the same compound, the TGI [36] was 61.1 µM, the TGI [37] was > 100 µM and the TGI [38] was 75.1 µM. For the same compound, the TGI [39] was 69.2 µM, the TGI [40] was 66 µM and the TGI [41] was > 100 µM. For the same compound, the TGI [42] was > 100 µM, the TGI [43] was 86.4 µM and the TGI [44] was > 100 µM. For the same compound, the TGI [45] was > 100 µM, the TGI [46] was > 100 µM and the TGI [59] was > 100 µM. For the same compound, the TGI [47] was 57.8 µM, the TGI [48] was > 100 µM and the TGI [49] was 79.9 µM. For the same compound, the TGI [50] was > 100 µM, the TGI [51] was > 100 µM and the TGI [53] was > 100 µM. The TGI [54] was 69.9 µM, the TGI [55] was > 100 µM and the TGI [56] was > 100 µM.
